One assay has as its target human FLAP (Homo sapiens (Human), UniProt P20292). The experiment in a line: FLAP binding assay (HTRF format). To be noted: human FLAP-containing Sf-9 membranes, 25 nM HTRF ligand, 2 h; average of runs; read-out: FLAP Binding wild type HTRF Ki. The essentials:
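His6-tagged human FLAP in Sf-9 membranes competed against a FITC-labelled indole FLAP modulator in HTRF format; 2 h reaction, read as HTRF ratio. Ki and IC50 from averaged duplicate ratios over 2–20 runs of two plates each; parenthetical numbers give run count.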

Assay [1] has as its system leukotriene pathway in human whole blood (LTB4). Nature of the assay: Human whole blood assay (LTB4 after calcium ionophore A23187 stimulation). It counts as cell-based. Conditions: human whole blood diluted 1:1 in RPMI, 15 min pre-incubation, A23187 7 μg/mL for 30 min at 37° Celsius. The essentials: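 Heparinised human whole blood, diluted 1:1 in RPMI, was preincubated with compound for 15 min at 37° C. before stimulation with A23187 (7 μg/mL) for 30 min. Plasma LTB4 was measured by immunoassay kit and IC50 obtained by 4-parameter fit; single replicate per plate, blood from at least one donor.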

Chain of human FLAP (P20292 whole entry): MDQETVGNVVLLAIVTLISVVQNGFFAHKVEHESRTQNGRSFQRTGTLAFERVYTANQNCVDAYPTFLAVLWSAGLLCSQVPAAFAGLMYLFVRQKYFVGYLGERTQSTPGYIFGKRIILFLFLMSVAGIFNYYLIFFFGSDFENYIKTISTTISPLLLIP

For the compound `CCC(CC)(Cc1nc2ccc(OCc3ccn(C)n3)cc2n1Cc1ccc(-c2ccc(C(F)(F)F)cc2)cc1F)C(=O)O` [Example 188], the Ki on human FLAP came out at 12 nM. Besides, the IC50 in assay [1] was 550 nM.

Regarding `CCC(CC)(Cc1nc2ccc(OCc3ccn(C)n3)cc2n1Cc1ccc(N2CCC(C(F)(F)F)CC2)cc1)C(=O)O` [Example 190, 2-ethyl-2-((6-((1-methyl-1H-pyrazol-3-yl)methoxy)-1-(4-(4-(trifluoromethyl)piperidin-1-yl)benzyl)-1H-benzo[d]imidazol-2-yl)methyl)butanoic acid], the Ki on human FLAP came to 210 nM. For the same compound, the IC50 in assay [1] (Homo sapiens) stood at 930 nM.

The record behind these values is patent publication US8952177B2 (Janssen Pharmaceutica NV, priority 2013, dated 2015).
